{"source": "paper PMC2533715", "about": "“Suppressive Effects of Selected Food Phytochemicals on CD74 Expression in NCI-N87 Gastric Carcinoma Cells” (Journal of Clinical Biochemistry and Nutrition, 2008)", "key": {"CD74": {"test_system": "CD74", "assay": "Cell-based ELISA for constitutive CD74 expression", "set-up": "species or system human", "conditions": "48 h, NCI-N87 cells; for IR (%) inhibition rate of CD74 expression: mean ± average deviation; for IC50: mean of duplicate experiments, unit printed in b25 only, read-out: IC50 (50% inhibitory concentration) for constitutive CD74 expression"}, "[1]": {"test_system": "cytochrome P450 (CYP) 3A4", "set-up": "method as in PMID 9548795", "conditions": "cited from earlier work"}, "CYP1A1": {"test_system": "CYP1A1", "set-up": "method as in PMID 15670584", "conditions": "cited from earlier work"}, "MCF-7 cells": {"test_system": "MCF-7 cells", "set-up": "method as in PMID 12641443", "conditions": "induced by benzo[a]pyrene and 7,12-dimethylbenz[a]anthracene; cited from earlier work"}, "skin tumors": {"test_system": "skin tumors", "set-up": "method as in PMID 9276625", "conditions": "mice; cited from earlier work"}, "NO generation": {"test_system": "NO generation", "set-up": "method as in PMID 10563895", "conditions": "cited from earlier work"}, "leukemia differentiation": {"test_system": "leukemia differentiation", "set-up": "method as in PMID 10552768", "conditions": "cited from earlier work"}, "Cell viability (MTT)": {"assay": "Cell viability (MTT)", "conditions": "human"}, "H. pylori urease": {"test_system": "H. pylori urease", "set-up": "method as in PMID 14550260", "conditions": "in vitro; cited from earlier work"}, "[2]": {"test_system": "H. pylori-induced gastritis", "set-up": "method as in PMID 14550260", "conditions": "Mongolian gerbils; cited from earlier work"}, "[3]": {"conditions": "NCI-N87 gastric carcinoma cells"}}, "data": [{"molecule": "CC(C)=CCC/C(C)=C/COc1c2ccoc2cc2oc(=O)ccc12", "note": "[Bergamottin]", "values": [{"measurement": "IR (%) inhibition rate of CD74 expression", "setting": "CD74; 4 µM", "value": "8.6 ± 4.2", "unit": "%"}, {"measurement": "IR (%) inhibition rate of CD74 expression", "setting": "CD74; 20 µM", "value": "74 ± 8.2", "unit": "%"}, {"measurement": "IR (%) inhibition rate of CD74 expression", "setting": "CD74; 20 µM, listed as bergamottin", "value": 74, "unit": "%"}, {"measurement": "Suppression of CD74 expression (in words)", "setting": "CD74", "value": "significant activity"}, {"measurement": "IC50", "setting": "CD74", "value": 14.2, "unit": "µM"}, {"measurement": "Inhibition of cytochrome P450 (CYP) 3A4", "setting": "[1]", "value": "inhibit"}, {"measurement": "Inhibition of CYP1A1", "setting": "CYP1A1", "value": "inhibit"}, {"measurement": "Formation of DNA adducts", "setting": "MCF-7 cells", "value": "reduced"}, {"measurement": "Skin tumors", "setting": "skin tumors", "value": "reduced"}, {"measurement": "NO generation", "setting": "NO generation", "value": "reduced"}, {"measurement": "Leukemia differentiation", "setting": "leukemia differentiation", "value": "induced"}, {"measurement": "CC50 at 48 h", "setting": "Cell viability (MTT); [3]", "value": "> 100", "unit": "µM"}, {"measurement": "viability at 48 h, 4 µM", "setting": "Cell viability (MTT); [3]", "value": 93, "unit": "%"}, {"measurement": "viability at 48 h, 20 µM", "setting": "Cell viability (MTT); [3]", "value": 79, "unit": "%"}, {"measurement": "viability at 48 h, 100 µM", "setting": "Cell viability (MTT); [3]", "value": "59 ± 2.1", "unit": "%"}]}, {"molecule": "O=C(OC1Cc2c(O)cc(O)cc2OC1c1cc(O)c(O)c(O)c1)c1cc(O)c(O)c(O)c1", "note": "(single isomer, unassigned; (-)) [EGCG, (−)-epigallocatechin-3-gallate]", "values": [{"measurement": "IR (%) inhibition rate of CD74 expression", "setting": "CD74; 4 µM", "value": "−110 ± 8.3", "unit": "%"}, {"measurement": "IR (%) inhibition rate of CD74 expression", "setting": "CD74; 20 µM", "value": "−149 ± 3.8", "unit": "%"}, {"measurement": "IR (%) inhibition rate of CD74 expression", "setting": "CD74; 100 µM", "value": "−217 ± 4.0", "unit": "%"}, {"measurement": "Suppression of CD74 expression (in words)", "setting": "CD74", "value": "did not suppress CD74 expression, but rather enhanced it"}, {"measurement": "IC50", "setting": "CD74", "value": "> 100", "unit": "µM"}, {"measurement": "H. pylori urease activity", "setting": "H. pylori urease", "value": "strongly inhibited"}, {"measurement": "H. pylori-induced gastritis", "setting": "[2]", "value": "suppressed"}, {"measurement": "CC50 at 48 h", "setting": "Cell viability (MTT)", "value": "> 100", "unit": "µM"}, {"measurement": "viability at 48 h, 4 µM", "setting": "Cell viability (MTT); [3]", "value": "78 ± 6.3", "unit": "%"}, {"measurement": "viability at 48 h, 20 µM", "setting": "Cell viability (MTT); [3]", "value": "77 ± 3.1", "unit": "%"}, {"measurement": "viability at 48 h, 100 µM", "setting": "Cell viability (MTT); [3]", "value": "78 ± 5", "unit": "%"}]}]}
